According to PMC7153278, “Discovery of Membrane-Bound Pyrophosphatase Inhibitors Derived from an Isoxazole Fragment” (ACS Medicinal Chemistry Letters, 2020):

What was measured:
[1] = biological target: Thermotoga maritima mPPase (TmPPase) (Thermotoga maritima, UniProt Q9S5X0); test: TmPPase inhibition assay (96-well plate, orthophosphate determination); assay type: biochemical; conditions: computed using the pIC50 and the Heavy Atom Count (LEHA) normalization method, Discovery Studio
[2] = biological target: P. falciparum vacuolar H+-translocating pyrophosphatase (PfPPase-VP1) (Plasmodium falciparum, UniProt Q8IKR1); test: PfPPase-VP1 inhibition assay on membrane fractions from baculovirus-infected insect cells; assay type: biochemical; conditions: PfPPase-VP1 in the membrane
Chain of P. falciparum vacuolar H+-translocating pyrophosphatase (PfPPase-VP1) (Q8IKR1 entry or part of it): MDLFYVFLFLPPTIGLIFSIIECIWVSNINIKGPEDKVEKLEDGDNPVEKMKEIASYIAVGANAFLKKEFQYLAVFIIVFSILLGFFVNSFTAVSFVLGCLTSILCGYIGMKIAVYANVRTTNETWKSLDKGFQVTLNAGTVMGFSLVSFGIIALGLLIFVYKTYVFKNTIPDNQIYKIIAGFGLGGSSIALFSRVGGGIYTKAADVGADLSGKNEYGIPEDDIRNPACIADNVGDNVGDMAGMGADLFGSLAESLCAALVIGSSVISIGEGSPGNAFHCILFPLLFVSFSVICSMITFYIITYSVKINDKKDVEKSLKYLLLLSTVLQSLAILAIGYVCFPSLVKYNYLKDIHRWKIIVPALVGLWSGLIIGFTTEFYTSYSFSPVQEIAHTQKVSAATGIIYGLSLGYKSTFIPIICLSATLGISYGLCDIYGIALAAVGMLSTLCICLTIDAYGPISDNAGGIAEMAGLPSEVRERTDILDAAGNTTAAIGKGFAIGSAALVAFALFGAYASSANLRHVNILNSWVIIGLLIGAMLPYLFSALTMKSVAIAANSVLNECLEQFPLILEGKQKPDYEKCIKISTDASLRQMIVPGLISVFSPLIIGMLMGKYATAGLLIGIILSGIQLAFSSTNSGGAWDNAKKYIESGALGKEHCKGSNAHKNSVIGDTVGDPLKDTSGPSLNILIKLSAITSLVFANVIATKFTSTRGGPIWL
Experimental: We then addressed the potential of 12k and 12l for translation to pathogenic proteins. These analogues differ by replacement of two methyl groups by two tert-butyl groups. In order to do so, we expressed the PfPPase-VP1 gene (PF3D7_1456800) in baculovirus-infected insect cells and performed the inhibition assay on the PfPPase-VP1 in the membrane (the method and further analysis will be described in more detail elsewhere).
The inhibition assay was measured in 96 well plate assay as previously reported.5,6 Briefly, 1 µL of purified TmPPase (13 mg/mL) was reactivated in 99 µL of reactivation buffer (20 mM 2-(N-morpholino) ethanesulfonic acid (MES) pH 6.5, 3.5% (v/v) glycerol, 2 mM dithiothreitol (DTT), 4.5% dodecyl maltoside (DDM) and 12 mg/mL L-α-phosphatidylcholine from soybean) and incubated at 55 °C for 15 min. For the assay, to each tube strips, 0.2 µL of the reactivated enzyme was added to 14.8 µL of reaction buffer (200 mM Tris-Cl pH 8.0, 8.0 mM MgCl2, 333 mM KCl, and 67 mM NaCl) and 25 µL of inhibitor. The reaction mixtures were sealed with an adhesive sealing sheet (Thermo Scientific) and incubated at 71 °C for 5 min. […] 180 µL of each reaction mixtures was then transferred into a clear 96 well polystyrene microplate and the absorbance was measured at 860 nm using a microplate spectrophotometer (MultiSkan Go, Thermo Scientific). […]

Chain of Thermotoga maritima mPPase (TmPPase) (Q9S5X0 whole entry): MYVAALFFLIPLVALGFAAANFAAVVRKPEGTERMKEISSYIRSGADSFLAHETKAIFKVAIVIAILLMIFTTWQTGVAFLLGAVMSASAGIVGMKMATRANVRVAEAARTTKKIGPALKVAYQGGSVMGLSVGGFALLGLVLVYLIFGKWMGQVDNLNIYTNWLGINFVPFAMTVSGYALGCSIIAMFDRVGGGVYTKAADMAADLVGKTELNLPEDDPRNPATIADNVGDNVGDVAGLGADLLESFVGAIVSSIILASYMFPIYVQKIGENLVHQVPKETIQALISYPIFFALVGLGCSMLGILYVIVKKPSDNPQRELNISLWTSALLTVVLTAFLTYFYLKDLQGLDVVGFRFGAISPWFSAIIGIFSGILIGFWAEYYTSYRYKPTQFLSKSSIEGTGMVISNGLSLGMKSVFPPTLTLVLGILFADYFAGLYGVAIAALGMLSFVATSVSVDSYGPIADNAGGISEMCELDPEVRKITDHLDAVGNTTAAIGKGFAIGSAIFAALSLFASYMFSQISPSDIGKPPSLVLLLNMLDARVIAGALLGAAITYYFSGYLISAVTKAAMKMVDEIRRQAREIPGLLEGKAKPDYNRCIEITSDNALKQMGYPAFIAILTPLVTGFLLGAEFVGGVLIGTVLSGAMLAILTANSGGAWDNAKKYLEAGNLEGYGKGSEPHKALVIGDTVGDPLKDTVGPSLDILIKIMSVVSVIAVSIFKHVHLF

## CC(C)(C)c1cc(-c2cc(C(=O)Oc3ccccc3Br)no2)cc(C(C)(C)C)c1 [Compound 12l]
[1]
  LE (ligand efficiency): 0.17
[2]
  IC50, PfPPase-VP1 activity: did not show inhibition at the tested concentrations
